Values joined by “and” are separate entries in the source; they are usually repeats but may differ in a detail not shown here. Identical values can stand only once.
Legend:
[1] = tested on: voltage-gated K+ (Kv4.2) channel phosphorylation; experiment: Striatal phospho-Kv4.2 immunohistochemistry 1 h after single injection; format: in vivo, mouse; conditions: single injection 20 mg/kg i.p., individual mice
Description: (§1) Immunohistochemistry was performed as described in Papale et al ([2016]). Briefly, 1 h after blocking in 5% normal goat serum and 0.1% Triton X‐100 solution, free‐floating sections were incubated overnight at 4°C with one of the following primary antibodies: anti‐phospho‐p44/42 MAP kinase (Thr202/Tyr204) (1:200, Cell Signaling Technology #9101), anti‐phospho–Elk‐1 (Ser383) (1:100, Cell Signaling #9181), anti‐phospho‐Kv4.2 (Thr607)‐R (1:100, Santa Cruz sc22254‐R), anti‐phospho‐MSK‐1 (1:100 Cell Signaling Technology #9595), anti‐phospho‐MEK1/2 (Ser218/222) (1:100, sc‐7995 Santa Cruz Biotechnology), c‐Fos (1:100, sc‐52 Santa Cruz Biotechnology), tyrosine Hydroxylase (monoclonal 1:1,000, Sigma Aldrich, Italy) and anti‐DARPP‐32 (H3) (1:100, Santa Cruz Biotechnology, #sc‐271111) overnight at 4°C. […]
(§2) For in vivo immunohistochemistry experiments, images were acquired from the dorsal striatum using a Leica DM IRB microscope under a 20× objective. The number of p‐ERK, p‐MSK‐1, p‐ELK, p‐MEK‐1, p‐VG K+, c‐Fos, and DARPP‐32 positive cells was counted in 2–3 consecutive sections per mouse, bilaterally and averaged across the sections using the ImageJ software by a blind investigator to the condition. Estimation of nigral cell loss was assessed by quantifying the number of TH‐immunopositive neurons of the SNc in 360 μm‐spaced sections for each animal.

c-Fos = experiment: Striatal c-Fos immunohistochemistry 1 h after single injection; format: in vivo, mouse; conditions: single injection 20 mg/kg i.p., individual mice
Description: as §1, §2

contextual fear memory [2] = experiment: Contextual fear conditioning, rats, intra-hippocampal infusion; format: in vivo, rat; parameters: unit not given here; conditions: 2 mg/ml, 1.0 μl/side into dorsal hippocampus 20 min prior to conditioning, individual rats
Description: Lister Hooded male rats (280–350 g) were housed in pairs, in holding rooms maintained at 21°C on a reversed‐light cycle (12 h light/dark; lights on at 10:00 P.M.). All experiments were conducted in the dark period of the rats. RB5 and Scramble peptides were infused into dorsal hippocampus.
Steel double guide cannulae aimed at the dorsal hippocampus (AP ‐3.50, relative to bregma) were surgical implanted under anesthesia at least 1 week prior to behavioral training and microinfusions. Bilateral infusions with either 2 mg/ml Scramble or RB5, 20 min prior to conditioning (pH 7.0, 1.0 μl/side, rate = […]) via the chronically indwelling cannula were carried out in awake rats using a syringe pump, connected to injectors (28 gauge, projecting 1 mm beyond the guide cannulae) by polyethylene tubing.
Conditioning was performed in one of two distinct contexts. These contexts were designed to differ in a number of distinctive characteristics including size, spatial location, odor, and lighting. During the 3 min conditioning training trial, rats received a single scrambled footshock (0.5 mA for 2 s) 2 min after being placed into one of the conditioning contexts. All rats were returned to the home cages after conditioning. Retrieval tests 3 h (postretrieval short‐term memory, STM), or 2 days (long‐term memory, LTM) after recall again consisted of exposing the rat to the conditioning context for 2 min not delivering a foot shock.
(§3) For all protocols, freezing behavior served as a measure of conditioned fear to the context during the conditioning and retrieval tests.

pELK = experiment: Striatal pELK immunohistochemistry 1 h after single injection; format: in vivo, mouse; conditions: single injection 20 mg/kg i.p., individual mice
Description: as §1, §2

[3] = tested on: procedural learning (nose poke responses); experiment: 9-hole operant boxes, FR1 nose poke, zQ175 mice with RB5; format: in vivo, mouse; conditions: for Nose poke responses (FR1): 9 days of treatment, 20 mg/kg i.p.; for FR1 nose poke, AUC analysis: 20 mg/kg i.p. 1 h before session
Description: Operant testing was conducted in 16 9‐hole operant boxes as previously described (Yhnell et al, [2016a]). Each operant box contains a horizontal array of nine holes with infrared beams localized to the front of each hole to detect nose pokes. A peristaltic pump delivers liquid reinforcement (strawberry milk) into a magazine at the front of the box.
A week before starting the training, mice underwent water restriction for 18 h/day and were kept under this regimen throughout the experimental procedures. Mice were taught to nose poke on a simple fixed ratio (FR1) schedule of reinforcement: to obtain reward, mice were required to respond to a stimulus light in the central hole via a single nose poke. zQ175 mice were trained daily on this program for 20‐min sessions for 10 days (training phase). Once trained, animals were subdivided into four groups and injected with RB5 or scramble (20 mg/kg, i.p.) peptides 1 h before being tested on the FR1 schedule for the other 9 days. At the end of the behavioral tests, mice were perfused with 4% PFA, and brains were processed for IHC or IF.

contextual fear memory [4] = experiment: Contextual fear conditioning, Tg2576 and WT mice; format: in vivo, mouse; parameters: unit not given here; conditions: 7 months, 20 mg/kg i.p. 1 h before CFC, test 24 h later, individual mice
Description: Tg2576 mice were administered with RB5 or Scramble (20 mg/kg i.p.) for either 7 days, for IHC analysis, or with a single injection (20 mg/kg i.p.), for behavioral analysis.
7‐month‐old Tg2576 mice and WT mice were treated with either Scramble or RB5 (20 mg/kg, i.p.) 1 h before CFC. Mice were individually placed in the conditioning chamber for 120 s of free exploration followed by five foot‐shocks (0.7 mA, 2‐s duration, separated by 60‐s intervals) delivered through the grid floor. Context Fear Memory was assessed 24 h later by returning mice for 5 min to the conditioning chamber and not delivering a foot shock.
as §3

Substance: GRKKRRQRRRPPQGGGGGEPRRTEGVGPGVPGEVEMVKGQPFDV [RB5, six D-amino acids, acetylated N-terminus]
- phospho-Kv4.2 positive cells in striatum [1]: did not influence the phosphorylation and 523.81 and 680.952 and 528.571 and 533.333 and 561.905 and 538.095 and 490.476 and 742.857 and 552.381 and 633.333 and 638.095 and 547.619
- c-Fos positive cells in striatum (c-Fos): selectively activated and 771.429 and 809.524 and 757.143 and 976.19 and 723.81 and 795.238 and 914.286 and 857.143 and 814.286 and 852.381 and 738.095 and 761.905 and 961.905 and 728.571
- Freezing behavior (contextual fear memory [2]; LTM, 2 days): markedly enhanced and 33.3 and 58.3 and 83.3 and 50
- Freezing behavior (contextual fear memory [2]; PostUS): markedly enhanced and 83.3 and 66.7
- Freezing behavior (contextual fear memory [2]; PreUS): 0
- Freezing behavior (contextual fear memory [2]; STM, 3 h): markedly enhanced and 58.3 and 75 and 91.7 and 50 and 66.7
- pELK positive cells in striatum (pELK): selectively activated and 980.952 and 828.571 and 933.333 and 1047.62 and 938.095 and 852.381 and 1080.95 and 1147.62 and 700 and 838.095 and 761.905 and 809.524 and 871.429 and 766.667
- Nose poke responses (FR1) ([3]; WT and zQ175 females): significantly enhanced responses
- FR1 nose poke, AUC analysis ([3]; WT females, treatment day 1): 696.2
- FR1 nose poke, AUC analysis ([3]; WT females, treatment day 2): 784.67
- FR1 nose poke, AUC analysis ([3]; WT females, treatment day 3): 771.56
- FR1 nose poke, AUC analysis ([3]; WT females, treatment day 4): 796.53
- FR1 nose poke, AUC analysis ([3]; WT females, treatment day 5): 786.86
- FR1 nose poke, AUC analysis ([3]; WT females, treatment day 6): 819.62
- FR1 nose poke, AUC analysis ([3]; WT females, treatment day 7): 786.91
- FR1 nose poke, AUC analysis ([3]; WT females, treatment day 8): 844.4
- FR1 nose poke, AUC analysis ([3]; WT females, treatment day 9): 832.09
- FR1 nose poke, AUC analysis ([3]; zQ175 females, treatment day 1): 293.69
- FR1 nose poke, AUC analysis ([3]; zQ175 females, treatment day 2): 300.15
- FR1 nose poke, AUC analysis ([3]; zQ175 females, treatment day 3): 373.09
- FR1 nose poke, AUC analysis ([3]; zQ175 females, treatment day 4): 374.4
- FR1 nose poke, AUC analysis ([3]; zQ175 females, treatment day 5): 384.76
- FR1 nose poke, AUC analysis ([3]; zQ175 females, treatment day 6): 413.69
- FR1 nose poke, AUC analysis ([3]; zQ175 females, treatment day 7): 454.91
- FR1 nose poke, AUC analysis ([3]; zQ175 females, treatment day 8): 338.07
- FR1 nose poke, AUC analysis ([3]; zQ175 females, treatment day 9): 338.07
- Nose poke responses (FR1) ([3]; zQ175 males): did not alter responses
- Freezing behavior, contextual fear memory (contextual fear memory [4]; Tg2576 mice): fully prevented the memory impairment and 56.33 and 63.67 and 67 and 57.33 and 84 and 76.33 and 95.67 and 82.67
- Freezing behavior, contextual fear memory (contextual fear memory [4]; WT mice): 93.33 and 94.33 and 78 and 88.33 and 70.33 and 78.33 and 85

Substance: SCR: ineffective Scramble version of RB5 containing a TAT sequence (GRKKRRQRRRPPRVGPGVPEGVGVAVFGVKEPGQTGDVGPVGE) [reference compound]
- phospho-Kv4.2 positive cells in striatum [1]: 690.476 and 419.048 and 495.238 and 514.286 and 895.238 and 652.381 and 457.143 and 633.333 and 452.381 and 780.952 and 561.905 and 657.143 and 738.095 and 604.762
- c-Fos positive cells in striatum (c-Fos): 461.905 and 395.238 and 423.81 and 380.952 and 419.048 and 352.381 and 438.095 and 376.19 and 604.762 and 404.762 and 590.476 and 552.381 and 490.476 and 290.476
- Freezing behavior (contextual fear memory [2]; LTM, 2 days): 33.3 (3×) and 58.3 and 16.7 (2×)
- Freezing behavior (contextual fear memory [2]; PostUS): 16.7 (2×) and 50 (2×) and 33.3 and 0
- Freezing behavior (contextual fear memory [2]; PreUS): 0
- Freezing behavior (contextual fear memory [2]; STM, 3 h): 33.3 (2×) and 41.7 and 16.7 and 25 and 8.3
- pELK positive cells in striatum (pELK): 323.81 and 423.81 and 452.381 and 228.571 and 433.333 and 633.333 and 371.429 and 404.762 and 166.667 and 219.048 and 309.524 and 280.952 and 295.238 and 195.238 and 133.333
- FR1 nose poke, AUC analysis ([3]; WT females, treatment day 1): 426
- FR1 nose poke, AUC analysis ([3]; WT females, treatment day 2): 494
- FR1 nose poke, AUC analysis ([3]; WT females, treatment day 3): 529
- FR1 nose poke, AUC analysis ([3]; WT females, treatment day 4): 551
- FR1 nose poke, AUC analysis ([3]; WT females, treatment day 5): 606
- FR1 nose poke, AUC analysis ([3]; WT females, treatment day 6): 632
- FR1 nose poke, AUC analysis ([3]; WT females, treatment day 7): 637
- FR1 nose poke, AUC analysis ([3]; WT females, treatment day 8): 652
- FR1 nose poke, AUC analysis ([3]; WT females, treatment day 9): 625
- FR1 nose poke, AUC analysis ([3]; zQ175 females, treatment day 1): 79.44
- FR1 nose poke, AUC analysis ([3]; zQ175 females, treatment day 2): 88.63
- FR1 nose poke, AUC analysis ([3]; zQ175 females, treatment day 3): 81.25
- FR1 nose poke, AUC analysis ([3]; zQ175 females, treatment day 4): 82.51
- FR1 nose poke, AUC analysis ([3]; zQ175 females, treatment day 5): 86.56
- FR1 nose poke, AUC analysis ([3]; zQ175 females, treatment day 6): 92.15
- FR1 nose poke, AUC analysis ([3]; zQ175 females, treatment day 7): 90.83
- FR1 nose poke, AUC analysis ([3]; zQ175 females, treatment day 8): 92.99
- FR1 nose poke, AUC analysis ([3]; zQ175 females, treatment day 9): 83.24
- Freezing behavior, contextual fear memory (contextual fear memory [4]; Tg2576 mice): 28.67 and 36 and 36.67 and 25.33 and 43.67 and 29.67 and 28
- Freezing behavior, contextual fear memory (contextual fear memory [4]; WT mice): 96.67 and 87.67 and 96.33 and 88.67 and 64 and 57.67 and 82.67

From paper PMC10630888, “Nuclear ERK1/2 signaling potentiation enhances neuroprotection and cognition via Importinα1/KPNA2” (EMBO Molecular Medicine, 2023)
